Tests used:
BMP-2 = BMP-2 gene reporter assay (high throughput screen); assay type: cell-based
Description: BMP-2 gene reporter assay (high throughput screen) (i) BMP-2 high throughput gene reporter assay of non-hydrolyzed MeOH/H2O extracts (1a) and corresponding glycosidase hydrolyzed extract in ethyl acetate (1b). Extracts were tested twice at concentrations of 1 to 100 μg/ml, diluted in culture medium from plant extract stocks prepared as 50 mg/ml in DMSO. (ii) Extracts positive in the BMP-2 screen were prepared de novo and screened again with dose-response to confirm as “hits”. (iii) BMP-2 testing of subfractionation of positives/hits and candidate pure compounds

osteoblast cells = test: Alkaline phosphatase assay in osteoblast cells (osteoblast differentiation); assay type: cell-based
Osteopontin (OPN) mRNA = test: OPN mRNA induction by real-time PCR in hPOBtert osteoblasts; assay type: cell-based, human; details: hPOBtert cells, 48 h; FIG. 10
Description: Cell culture—HPOBTert osteoblasts were seeded on collagen-coated plates and grown in MEM Eagle α Modification medium supplemented with 10% fetal bovine serum, 1% L-glutamine and penicillin/streptomycin, 1 mM β-glycerolphosphate and 50 μg/ml ascorbic acid in a humidified atmosphere of 5% CO2, and 95% air at 37° C. When carnosol and inhibitors were added, an equivalent amount of Me2SO was used as a vehicle control. Analysis of mRNA levels by Real-Time PCR—Total cellular RNA was extracted using the NucleoSpin RNA II kit (Macherey-Nagel, Switzerland). Equal amounts (1 μg) of RNA from the different treatments were reverse-transcribed using the First Strand cDNA Synthesis kit for RT-PCR (Roche, Mannheim, Germany). For each sample, 2 μl 10× reaction buffer, 4 μl 25 mM MgCl2, 2 μl nucleotide mix, 2 μl random primers, 1 μl RNAse inhibitor and 0.4 μl AMV reverse transcriptase from the kit were added to the sample. The reverse transcriptase was performed at the following thermal cycling conditions (25° C. for 10 min, 42 C for 60 min, and 75° C. for 5 min) using the PTC-100TM Concept, Switzerland). Real-time Quantitative PCR—Quantitative PCR was performed in 25 μl in triplicates. This consisted of 12.5 μl of Taqman 2× Universal PCR Master Mix, 1.25 μl Assay-on-Demand primers and probes (Applied Biosystems, USA) and 6.25 μl RNAse free water. […]

[1] = test system: neonatal murine calvarial bones; test: Calvaria organ culture in vitro, bone formation; assay type: cell-based
Description: (v) Final injection in vivo of “hit” extract into mouse calvaria bones and monitoring of bone area and thickness. Extracts were assessed in a 4-day in vitro neonatal murine calvarial assay. Bones were incubated with the extracts for the entire 4 days.

[2] = test system: bovine articular cartilage explants; test: Cytokine-induced collagen degradation in articular cartilage explants; assay type: cell-based; details: 1 or 5 μM; FIG. 9C
Description: (vii) Effects on cytokine-induced type II collagen degradation, MMP-mediated aggrecan degradation and aggrecanase-mediated degradation in bovine articular cartilage explants.
We investigated here whether 2 different rosemary extracts and carnosol, one of the main components of this extract, could inhibit the degradation of collagen and aggrecan in cultured explants of articular cartilage. Explants from healthy bovine articular cartilage were put in culture. However, such explants naturally display a very low catabolic activity which is not ideal to test the anti-catabolic activity of potential bioactives. To improve the sensitivity of the assay, the explants are cultured in presence of 2 pro-inflammatory cytokines, TNF-α and oncostatin known to act together as potent inducers of MMP and aggrecanase activities.

NQO1 = NQO1 induction, immunoblot of hPOBtert cell extracts; assay type: cell-based, human; details: hPOBtert cells; FIG. 11
Description: Preparation of cytoplasmic extracts—hPOBtert cells were washed two times with cold phosphate-buffered saline and harvested with lysis buffer (1% Triton X-100, 20 mM Tris/HCL pH 8, 137 mM Nacl, 10% Glycerol, 2 mM EDTA pH 8, and freshly added proteinase inhibitors: 1 mM phenylmethylsulfonylfluoride, 0.15 U/ml Aprotinin, 10 μg/ml Leupeptide and 10 μg/ml Pepstatin). The samples were centrifuged at 13000 rpm, 4° C. for 5 min and the supernatant transferred to a fresh tube. The protein concentration was determined using the BioRad protein assay. Approximately 50 μg of each sample were mixed with a suitable volume of sample buffer, denatured for 5 min at 95° C. together with 5 μl protein standard, chilled on ice, and loaded on a 10% ready gel, and submitted to immunoblot analysis using anti-NQO1 antibodies.
Immunoblotting—50 μg of protein cell lysate were resolved by SDS-PAGE. After electrophoresis, proteins were transferred to a PVDF membrane (Invitrogen) according to the manufacturer's protocol. Membranes probed for OPN and NQO1 were blocked and probed in 5% milk in Tris-buffered saline/Tween (20 mM Tris base, pH 7.6, 137 mM, 0.1% Tween 20). The blots were visualised by chemiluminescence development, Western blotting detection system (Amersham Biosciences).
Antibodies—The NQO1 (sc-16464)-specific antibodies were purchased from Santa Cruz Biotechnologies Inc (Santa Cruz, Calif.). […]

OPG/RANKL = test: Osteoblast/osteoclast co-culture system, cytokine regulation; assay type: cell-based
Description: For example, at least 3 phenolics (e.g. eupafolin, carnosol, scutellarein) may contribute to the anabolic potential of the rosemary extract. Additional phenolics of rosemary include genkwanin, kaempferol, acacetin. The rosemary plant extracts and pure compounds were tested in an osteoblast/osteoclast co-culture system.

## O=c1cc(-c2ccc(O)cc2)oc2cc(O)c(O)c(O)c12 [IX, Scutellarein]
BMP-2; 5, 10 μM
  BMP-2 induction: 3-4X
Osteoblast cells; 10 μM
  ALP activity induction: 2X

## CC(C)c1cc2c(c(O)c1O)[C@@]13CCCC(C)(C)[C@@H]1C[C@@H]2OC3=O [VII, Carnosol]
Osteopontin (OPN) mRNA
  OPN expression (OPN mRNA levels): induce OPN expression dose-dependently
[1]; 2.5 μM
  Bone formation in organ culture: Slight BF for 2.5 μM
[1]; 5, 10 μM
  Bone formation in organ culture: Good BF for 5, 10 μM
[2]
  cytokine induced collagen degradation: inhibited
BMP-2; 2.5-10 μM
  BMP-2 induction: 4.5-7X
BMP-2; compounds isolated from rosemary extract 2188
  BMP- Activity: YES
NQO1
  expression of the phase II enzyme NQO1: induces the expression
OPG/RANKL
  regulation of the key cytokines controlling bone remodelling, OPG/RANKL: activity for regulation
Osteoblast cells; 2.5-10 μM
  ALP activity induction: 2X

## O=c1c(O)c(-c2ccc(O)cc2)oc2cc(O)cc(O)c12 [Kaempferol]
[1]; 10 μM
  Bone formation in organ culture: Slight at 10 μM
BMP-2; 1-10 μM
  BMP-2 induction: 2.5X
Osteoblast cells; 2.5-10 μM
  ALP activity induction: 2-4X

## COc1cc(O)c2c(=O)cc(-c3ccc(O)cc3)oc2c1 [V, Genkwanin]
BMP-2; 5 μM
  BMP-2 induction: 4X
Osteoblast cells; 10 μM
  ALP activity induction: 1.5X

## COc1ccc(-c2cc(=O)c3c(O)cc(O)cc3o2)cc1 [Acacetin]
BMP-2; 5-10 μM
  BMP-2 induction: 3-5X
Osteoblast cells; 5-10 μM
  ALP activity induction: 2X

## COc1c(O)cc2oc(-c3ccc(O)c(O)c3)cc(=O)c2c1O [Eupafolin]
BMP-2; 2.5-10 μM
  BMP-2 induction: 3-8X
OPG/RANKL
  regulation of the key cytokines controlling bone remodelling, OPG/RANKL: activity for regulation
Osteoblast cells; 5 μM
  ALP activity induction: 2 X
Osteoblast cells; 10 μM
  ALP activity induction: 4 X
